Experimental data: paper PMC10653770 (Journal of Enzyme Inhibition and Medicinal Chemistry, 2023)

Key:
[1] = target: AChE − induced Aβ1 − 42 aggregation (Homo sapiens, UniProt P22303); assay type: biochemical; conditions: co-incubation with Aβ1-42 and AChE for 24h; 0.1 μM and 1 μM compound
[2] = tested on: SH − SY5Y cells; assay type: cell-based, human; conditions: 1 μM compound; Aβ1 − 42 20 μM, 48 h
[3] = target: hAChE (Homo sapiens, UniProt P22303); assay: Kinetic profiling of AChE inhibition; assay type: biochemical; conditions: Lineweaver–Burk plot
hAChE, sequence (P22303 32-614): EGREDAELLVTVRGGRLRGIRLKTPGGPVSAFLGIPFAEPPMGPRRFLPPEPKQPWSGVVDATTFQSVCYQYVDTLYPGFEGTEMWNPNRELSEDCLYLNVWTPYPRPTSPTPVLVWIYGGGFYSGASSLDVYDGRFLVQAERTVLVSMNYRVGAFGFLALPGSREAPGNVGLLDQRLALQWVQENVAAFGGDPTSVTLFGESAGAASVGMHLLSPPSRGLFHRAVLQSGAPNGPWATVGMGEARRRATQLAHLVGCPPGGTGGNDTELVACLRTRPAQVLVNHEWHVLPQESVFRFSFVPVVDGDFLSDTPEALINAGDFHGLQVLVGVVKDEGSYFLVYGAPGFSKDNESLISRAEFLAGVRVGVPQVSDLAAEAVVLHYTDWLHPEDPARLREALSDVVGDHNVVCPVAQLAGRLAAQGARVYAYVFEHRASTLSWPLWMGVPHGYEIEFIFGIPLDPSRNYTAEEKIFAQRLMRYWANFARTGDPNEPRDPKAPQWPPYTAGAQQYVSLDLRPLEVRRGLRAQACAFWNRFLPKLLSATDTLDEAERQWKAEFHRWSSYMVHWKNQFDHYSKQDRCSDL

[4] = tested on: SH − SY5Y cells; conditions: for toxicity towards SHSY5Y cells: within the tested concentration range
[5] = in vitro; conditions: human

AChE − induced Aβ1 − 42 aggregation, sequence (P22303 32-614): as above

SMILES | AChE − induced Aβ1 − 42 aggregation [1] | cellular recovery against Aβ1 − 42−induced damage [2] | type of AChE inhibition [3] | cytotoxicity in SHSY5Y cells ([4]; 0.1 to 1 μM, 48h incubation) | toxicity towards SHSY5Y cells [4] | viability at 10 µM [5]
C=CCn1c2cc(OC(=O)CCCCN3CCN(Cc4ccccc4)CC3)ccc2c2ccnc(C)c21 [Compound 13, 9-allyl-1-methyl-9H-pyrido[3,4-b]indol-7-yl 5–(4-benzylpiperazin-1-yl)pentanoate] | significant reduction in Aβ1 − 42 aggregation | exceptional cellular recovery | mixed − type inhibition | negligible cytotoxicity | weak toxicity | > 79%
C=CCn1c2cc(OC(=O)CCCCN3CCN(Cc4ccc(F)cc4)CC3)ccc2c2ccnc(C)c21 [Compound 17d, 9-allyl-1-methyl-9H-pyrido[3,4-b]indol-7-yl 5–(4-(4-fluorobenzyl)piperazin-1-yl)pentanoate] | significant reduction in Aβ1 − 42 aggregation | – | – | – | weak toxicity | > 79%
